Values of other authors, collected in patent US20100055177A1, “MODIFIED RELEASE COMPOSITION OF LEVETIRACETAM AND PROCESS FOR THE PREPARATION THEREOF” (priority 2008, published 2010).

- water solubility: about 1.04 g/ml
Compound: CC[C@@H](C(N)=O)N1CCCC1=O [levetiracetam, (−)-(S)-(alpha)-ethyl-2-oxo-1-pyrrolidine acetamide]
